Results reported in patent publication US4849421A, “Anti-anxiety benzothiepino(5,4-c]pyridazines” (Yoshitomi Pharmaceutical Industries, Ltd., priority 1987, dated 1989).

Columns and labels:
[1] = system: bicuculline-induced tonic convulsion; assay: Anti-bicuculline effect; type: in vivo, male ddY-strain mice; conditions: Mus musculus, po; mice, p.o. 1 hour before (+)bicuculline 0.6 mg/kg i.v.; tonic convulsion within 5 minutes
Protocol: Experiment 2: Anti-bicuculline effect:
The experiment of anti-bicuculline effect was performed according to the method described in Life Science, vol. 21, p. 1779 (1977).
Groups of 7-14 male ddY-strain mice weighing 20-28 g were used. (+)Bicuculline (0.6 mg/kg) was intraveneously administered 1 hour after the oral administration of test compound, and the ED50, 50% effective dose, was determined by observing the existence of tonic convulsion within 5 minutes.

[2] = target: benzodiazepine receptor; assay: Displacement ability for benzodiazepine receptor ([3H]diazepam binding); parameters: species or system Wistar rats (cerebral cortex, crude synaptosomal fraction); conditions: tritiated diazepam 2 nM, 0° C., 20 minutes, pH 7.4, rat cerebral cortex
Protocol: Compound J: 8-chloro-2-(4-chlorophenyl)-5,6-dihydro-[1]benzothiepino[5,4-c]pyridazin-3(2H)-one 7-oxide Experiment 1: Displacement ability for benzodiazepine receptor:
Experiment on the specific binding for benzodiazepine receptor was performed according to the method described in Life Science, vol. 20, p. 2101 (1977).
A crude synaptosomal fraction was isolated from the cerebral cortex of 9 to 10 week-old male Wistar rats and suspended in 50 mM of Tris-hydrochloric acid buffer solution (pH 7.4) containing 120 mM of sodium chloride and 5 mM of potassium chloride.
To the synaptosomal suspension as prepared above were added various concentrations of test compounds and tritiated diazepam (final concentration: 2 nM), and the mixture was incubated at 0° C. for 20 minutes. Then the suspension was filtered through Whatman GF/B glass fiber filter. After the filter was washed with the foregoing buffer solution, the radioactivity left on the filter was measured by a liquid scintillation spectrometry.
Specific binding was determined by subtracting binding in the presence of 10^-6 M unlabelled diazepam from total binding.
The affinity of the test compounds of the present invention for benzodiazepine receptor is evaluated as an ability to displace tritiated diazepam from the binding site, and is represented as Ki value.

[3] = system: number of shock in the punished period; assay: Anti-anxiety effect (anti-conflict test, Skinner-box); type: in vivo, male rats; conditions: Rattus norvegicus; rats, oral; significant increment of number of shock in the punished period; read-out: Anti-anxiety effect MED
Protocol: Experiment 3: Anti-anxiety effect:
The experiment was carried out by using groups of 8 male rats which were maintained at approximately 80% of their free food weights by reducing food and employing a Skinner-box equipped with lever on the side and a grid on the floor.
The rats were placed in the Skinner-box and trained to press a lever in order to obtain milk. According to this training, the rats could obtain 0.1 ml of milk once by pressing the lever twenty times (Fix-ratio 20 reinforcement schedule, FR20).
After the rats was trained to obtain milk for 10 minutes according to FR20 (this period was hereinafter referred to as unpunished period), loud noise was given to the rats for 5 minutes (this period was hereinafter referred to as punished period). In this punished period, the rats could obtain milk everytime when they pushed the lever once, and also received a foot shock (AC 100V, 0.4-0.8 mA) for 0.3 second through the grid.
According to the repeated training of the unpunished period and the punished period, the animals which continuously pushed the lever in the unpunished period and rarely pushed, it in the punished period, and had the number of shock below 10 were provided to the experiment.
After the rats were orally administered with a test compound in 0.5% methylcellulose, the unpunished period (10 minutes) and the punished period (5 minutes) were alternately performed four times to the rats. The number of push of the lever in the unpunished period in 40 minutes and the number of shock in the punished period in 20 minutes were measured, and minimum effective dose (MED, mg/kg) was determined as the dose which observable the significant increment of number of shock in the punished period with being compared to the control group.

[4] = system: muscle-relaxant effect; assay: Muscle-relaxant effect (rotating rod); type: in vivo, male mice; conditions: Mus musculus; mice, oral, 1 hour; rotating rod 11 rpm, drop within 1 minute
Protocol: Experiment 4: Muscle-relaxant effect:
Groups of 10 male mice each were administered orally with test compounds and an hour later placed on the rotating rod (2.8 cm in diameter) turning at a speed of 11 rpm. The ED50 (mg/kg) was calculated by the probit method as the dose which caused to drop the half number of mice from the rod within 1 minute.

[5] = system: righting reflex; assay: Potentiation of alcoholic effect (ethanol); type: in vivo, male mice; conditions: mice, oral, 1 hour before 30% ethanol 0.1 ml/10 g i.p.; loss of righting reflex
Protocol: Experiment 6: Potentiation of alcoholic effect:
(§1) Groups of 14 male mice, which were set in a room kept at 26° C., were administered orally with test compound and an hour later administered intraperitoneally with 0.1 ml/10 g of 30% ethanol. The righting reflex was tested at 15 and 30 minutes after ethanol treatment. The ED50 (mg/kg) was calculated by the probit method as the dose which caused loss of righting reflex for more than 3 seconds in half the mice.

[6] = system: righting reflex; assay: Potentiation of narcotic effect (hexobarbital); type: in vivo, male mice; conditions: mice, oral, 1 hour before hexobarbital 40 mg/kg i.p.; loss of righting reflex
Protocol: Experiment 5: Potentiation of narcotic effect:
as §1, with “40 mg/kg” for “0.1 ml/10 g”, “hexobarbital.” for “30% ethanol.”, “hexobarbital” for “ethanol”

O=c1cc2c(nn1-c1ccc(Cl)cc1)-c1ccccc1SCC2 [Compound A, 2-(4-chlorophenyl)-5,6-dihydro-[1]benzothiepino[5,4-c]pyridazin-3(2H)-one]
ED50 [1]: 5.5 mg/kg
Ki [2]: 10 nM

O=c1cc2c(nn1-c1ccc(Cl)cc1)-c1cc(Cl)ccc1[S+]([O-])CC2 (centres unmarked) [Compound B, 10-chloro-2-(4-chlorophenyl)-5,6-dihydro-[1]benzothiepino[5,4-c]pyridazin-3(2H)-one 7-oxide]
ED50 [1]: 3.2 mg/kg
Ki [2]: 11 nM

O=c1cc2c(nn1-c1ccc(Cl)cc1)-c1ccccc1[S+]([O-])CC2 (centres unmarked) [Compound C, 2-(4-chlorophenyl)-5,6-dihydro-[1]benzothiepino[5,4-c]pyridazin-3(2H)-one 7-oxide]
ED50 [1]: 1.2 mg/kg
minimal effective dose [3]: 2.5 mg/kg
ED50 [4]: 103 mg/kg
Ki [2]: 37 nM
Potentiation of alcoholic effect ED50 [5]: 44 mg/kg
Potentiation of narcotic effect ED50 [6]: 113 mg/kg

O=C1CC2CC[S+]([O-])c3ccccc3C2=NN1c1ccc(Cl)cc1 (centres unmarked) [Compound D, 2-(4-chlorophenyl)-4,4a,5,6-tetrahydro-[1]benzothiepino[5,4-c]pyridazin-3(2H)-one 7-oxide]
ED50 [1]: 4.5 mg/kg
Ki [2]: 45 nM

O=c1cc2c(nn1-c1ccc(Cl)cc1)-c1cc(F)ccc1SCC2 [Compound E, 2-(4-chlorophenyl)-10-fluoro-5,6-dihydro[1]benzothiepino[5,4-c]pyridazin-3(2H)-one]
ED50 [1]: 2.2 mg/kg
Ki [2]: 14 nM

O=c1cc2c(nn1-c1ccc(Cl)cc1)-c1cc(F)ccc1[S+]([O-])CC2 (centres unmarked) [Compound F, 2-(4-chlorophenyl)-10-fluoro-5,6-dihydro-[1]benzothiepino[5,4-c]pyridazin-3(2H)-one 7-oxide]
ED50 [1]: 0.72 mg/kg
minimal effective dose [3]: < 5 mg/kg
ED50 [4]: 107 mg/kg
Ki [2]: 36 nM
Potentiation of alcoholic effect ED50 [5]: 117 mg/kg
Potentiation of narcotic effect ED50 [6]: 110 mg/kg

O=c1cc2c(nn1-c1ccc(Br)cc1)-c1ccccc1[S+]([O-])CC2 (centres unmarked) [Compound G, 2-(4-bromophenyl)-5,6-dihydro-[1]benzothiepino[5,4-c]pyridazin-3(2H)-one 7-oxide]
ED50 [1]: 5.9 mg/kg
Ki [2]: 34 nM

O=C1CC2CC[S+]([O-])c3ccccc3C2=NN1c1ccc(Br)cc1 (centres unmarked) [Compound H, 2-(4-bromophenyl)-4,4a,5,6-tetrahydro-[1]benzothiepino[5,4-c]pyridazin-3(2H)-one 7-oxide]
ED50 [1]: 4.5 mg/kg
Ki [2]: 44 nM

O=c1cc2c(nn1-c1ccc(F)cc1)-c1cc(F)ccc1SCC2 [Compound I, 10-fluoro-2-(4-fluorophenyl)-5,6-dihydro-[1]benzothiepino[5,4-c]pyridazin-3(2H)-one]
ED50 [1]: 6 mg/kg
Ki [2]: 43 nM

O=c1cc2c(nn1-c1ccc(Cl)cc1)-c1cccc(Cl)c1[S+]([O-])CC2 (centres unmarked) [Compound J, 8-chloro-2-(4-chlorophenyl)-5,6-dihydro-[1]benzothiepino[5,4-c]pyridazin-3(2H)-one 7-oxide]
ED50 [1]: 0.67 mg/kg
minimal effective dose [3]: < 5 mg/kg
ED50 [4]: > 500 mg/kg
Ki [2]: 11 nM
Potentiation of alcoholic effect ED50 [5]: > 500 mg/kg
Potentiation of narcotic effect ED50 [6]: > 200 mg/kg
